Laboratory results reported in US12122761B2, “2-azaspiro[3.4]octane derivatives as M4 agonists” (NOVARTIS AG, priority 2019, dated 2024).

What was measured:
Assay type in all cases: cell-based
[1] = target: T1, human cloned CHRM5 receptor (M5_CHO) (Homo sapiens, UniProt P08912); test: CHRM5 Ca++ Flux Assay (agonist mode, FDSS 7000EX); conditions: for Emax: Percent Activity measured to EC100 of Carbachol, read-out: M5 FDSS PA; for EC50: agonist mode, geometric mean if tested more than once, read-out: M5 FDSS EC50
T1 construct: expressed in transfected cells; host or cells: CHO (M5_CHO)
T1 sequence (P08912 1-532): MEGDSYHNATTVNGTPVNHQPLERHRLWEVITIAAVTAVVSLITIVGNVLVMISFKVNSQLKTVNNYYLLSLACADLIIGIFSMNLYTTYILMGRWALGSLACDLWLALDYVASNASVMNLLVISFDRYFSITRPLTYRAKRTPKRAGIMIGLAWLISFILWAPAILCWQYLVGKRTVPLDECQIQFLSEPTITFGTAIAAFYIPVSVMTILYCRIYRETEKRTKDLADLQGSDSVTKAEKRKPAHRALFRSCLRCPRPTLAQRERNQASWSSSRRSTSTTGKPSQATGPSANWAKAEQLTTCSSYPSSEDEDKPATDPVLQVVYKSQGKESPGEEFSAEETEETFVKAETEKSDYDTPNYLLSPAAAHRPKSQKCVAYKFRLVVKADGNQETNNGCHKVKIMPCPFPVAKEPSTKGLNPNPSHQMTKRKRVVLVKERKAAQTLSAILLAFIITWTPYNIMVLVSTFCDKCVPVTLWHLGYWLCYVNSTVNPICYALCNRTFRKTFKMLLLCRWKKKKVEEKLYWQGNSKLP
Procedure, shortened: (§1)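 CHO-K1 cells stably expressing human M3 or M5 receptor were dye-loaded for at least 1 h in HBSS with 20 mM HEPES and 2.5 mM probenecid, then given 11-point compound doses in triplicate.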

[2] = target: T2, human cloned CHRM3 receptor (M3_CHO cells) (Homo sapiens, UniProt P20309); test: CHRM3 Ca++ Flux Assay (agonist mode, FDSS 7000EX); conditions: for Emax: Percent Activity measured to EC100 of Carbachol, read-out: M3 FDSS PA; for EC50: agonist mode, geometric mean if tested more than once, read-out: M3 FDSS EC50
T2 construct: expressed in transfected cells; host or cells: CHO-K1
Procedure, shortened: as §1

[3] = target: T3, human cloned CHRM4 receptor (M4_CHO cells) (Homo sapiens, UniProt P08173); test: CHRM4 Ca++ Flux Assay (agonist mode, FDSS 7000EX); conditions: for Emax: Percent Activity, read-out: M4 FDSS PA; for EC50: geometric mean if tested more than once, read-out: M4 FDSS EC50
T3 construct: expressed in transfected cells; host or cells: CHO-K1
T3 sequence (P08173 1-479): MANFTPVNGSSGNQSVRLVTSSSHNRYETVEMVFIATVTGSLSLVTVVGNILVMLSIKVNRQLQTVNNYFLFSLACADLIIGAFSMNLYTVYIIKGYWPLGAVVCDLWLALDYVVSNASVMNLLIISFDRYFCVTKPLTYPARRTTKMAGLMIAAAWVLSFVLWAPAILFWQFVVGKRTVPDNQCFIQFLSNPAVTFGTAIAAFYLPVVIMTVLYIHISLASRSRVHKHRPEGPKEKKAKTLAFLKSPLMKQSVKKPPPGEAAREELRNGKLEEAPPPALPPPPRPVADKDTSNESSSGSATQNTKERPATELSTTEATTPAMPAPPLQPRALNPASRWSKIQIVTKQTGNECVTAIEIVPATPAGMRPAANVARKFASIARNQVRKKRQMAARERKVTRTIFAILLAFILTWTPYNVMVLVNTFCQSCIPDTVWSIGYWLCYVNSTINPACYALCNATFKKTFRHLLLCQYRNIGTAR
Procedure, shortened: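 Agonist-mode response was expressed as percent of the Carbachol EC100 and fitted with four-parameter nonlinear regression over an 11-point triplicate dose series. Intracellular Ca++ was tracked for 3 min by fluorescent dye in CHO-K1 cells stably expressing human CHRM4. Cells were preincubated 60 min with 20 μM ATP in buffer containing 2.5 mM probenecid.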

T2 sequence (P20309 whole entry): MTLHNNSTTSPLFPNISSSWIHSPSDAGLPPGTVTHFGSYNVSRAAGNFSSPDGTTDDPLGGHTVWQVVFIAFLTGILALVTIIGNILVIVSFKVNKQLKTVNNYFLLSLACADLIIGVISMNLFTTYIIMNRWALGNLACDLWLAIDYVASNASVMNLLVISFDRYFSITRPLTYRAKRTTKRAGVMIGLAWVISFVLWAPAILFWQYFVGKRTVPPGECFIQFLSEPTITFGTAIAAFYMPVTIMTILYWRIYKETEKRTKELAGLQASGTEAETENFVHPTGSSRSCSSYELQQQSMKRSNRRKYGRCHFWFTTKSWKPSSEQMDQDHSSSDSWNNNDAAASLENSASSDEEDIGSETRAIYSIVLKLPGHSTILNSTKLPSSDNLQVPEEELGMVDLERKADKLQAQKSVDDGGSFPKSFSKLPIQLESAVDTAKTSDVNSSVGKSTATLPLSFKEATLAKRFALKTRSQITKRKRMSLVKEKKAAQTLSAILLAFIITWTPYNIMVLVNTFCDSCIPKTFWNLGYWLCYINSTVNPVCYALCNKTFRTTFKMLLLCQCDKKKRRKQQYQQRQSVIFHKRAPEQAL

| Emax [1] | EC50 [1] | Emax [2] | EC50 [2] | Emax [3] | EC50 [3] | SMILES |
| --- | --- | --- | --- | --- | --- | --- |
| 8% | 13.4 µM | 0% | > 25 µM | 55% | 0.043 µM | COc1ccc(Cl)cc1C1CCN([C@@H]2CCC3(C2)CN(c2ccnnc2)C3)CC1 [Example 5P, (R)-6-(4-(5-chloro-2-methoxyphenyl)piperidin-1-yl)-2-(pyridazin-4-yl)-2-azaspiro[3.4]octane] |
| 0% | > 25 µM | 0% | > 25 µM | 54% | 0.021 µM | c1ccc(C2CCN([C@@H]3CCC4(C3)CN(c3ncncn3)C4)CC2)c(OCC2CCOCC2)c1 [Example 5Q, (R)-6-(4-(2-((tetrahydro-2H-pyran-4-yl)methoxy)phenyl)piperidin-1-yl)-2-(1,3,5-triazin-2-yl)-2-azaspiro[3.4]octane] |
| 1% | > 25 µM | 0% | > 25 µM | 51% | 0.131 µM | COc1ccccc1C1CCN([C@@H]2CCC3(C2)CN(c2cc(Cl)nnc2Cl)C3)CC1 [Example 5R, (R)-2-(3,6-dichloropyridazin-4-yl)-6-(4-(2-methoxyphenyl)piperidin-1-yl)-2-azaspiro[3.4]octane] |
| 0% | > 25 µM | 0% | > 25 µM | 55% | 0.129 µM | COc1ccccc1C1CCN([C@@H]2CCC3(C2)CN(c2ccnnc2)C3)CC1 [Example 5S, (R)-6-(4-(2-methoxyphenyl)piperidin-1-yl)-2-(pyridazin-4-yl)-2-azaspiro[3.4]octane] |
